Measured values as given in ChEMBL document CHEMBL4196088, “Induction of cell killing and autophagy by amphiphilic pyrrolidine derivatives on human pancreatic cancer cells” (Eur J Med Chem, 2018).

Assays:
BXPC-3 = test: Growth inhibition of human BxPC3 cells after 72 hrs by XTT assay; assay type: functional, cell-based; conditions: BXPC-3, 72 h
PANC-1 [1] = test: Growth inhibition of human PANC1 cells after 72 hrs by XTT assay; assay type: functional, cell-based; conditions: PANC-1, 72 h
HeLa = test: Growth inhibition of human HeLa cells after 72 hrs; assay type: functional, cell-based
MIA PaCa-2 = test: Growth inhibition of human MIAPaCa2 cells after 72 hrs by MTT assay; assay type: functional, cell-based; conditions: MIA PaCa-2, 72 h
PK9 = test: Growth inhibition of human PK9 cells after 72 hrs by MTT assay; assay type: functional, cell-based; conditions: PK9, 72 h
PANC-1 [2] = test: Induction of apoptosis in human PANC1 cells assessed as accumulation at sub-G0/G1 phase at 20 uM after 24 hrs by propidium iodide staining based flow cytometry (reference value: 0.6 to 0.7%); assay type: functional
PANC-1 [3] = test: Induction of apoptosis in human PANC1 cells assessed as accumulation at sub-G0/G1 phase at 20 uM after 48 hrs by propidium iodide staining based flow cytometry (reference value: 0.2 to 2.9%); assay type: functional
PANC-1 [4] = test: Induction of apoptosis in human PANC1 cells assessed as accumulation at sub-G0/G1 phase at 20 uM after 72 hrs by propidium iodide staining based flow cytometry (reference value: 1.6 to 3.2%); assay type: functional
PANC-1 [5] = test: Induction of apoptosis in human PANC1 cells assessed as accumulation at sub-G0/G1 phase at 10 uM after 24 hrs by propidium iodide staining based flow cytometry (reference value: 0.6 to 0.7%); assay type: functional
PANC-1 [6] = test: Induction of apoptosis in human PANC1 cells assessed as accumulation at sub-G0/G1 phase at 10 uM after 48 hrs by propidium iodide staining based flow cytometry (reference value: 0.2 to 2.9%); assay type: functional
PANC-1 [7] = test: Induction of apoptosis in human PANC1 cells assessed as accumulation at sub-G0/G1 phase at 10 uM after 72 hrs by propidium iodide staining based flow cytometry (reference value: 1.6 to 3.2%); assay type: functional

Row | SMILES | IC50 (BXPC-3) | IC50 (PANC-1 [1]) | IC50 (HeLa) | IC50 (MIA PaCa-2) | IC50 (PK9) | other results
1 | CCCCCCCC/C=C\CCCCCCCCOC[C@@H]1CCCN1C(=O)OC(C)(C)C | > 100 µM | 80 µM |  | > 100 µM | > 100 µM | 
2 | CCCCCCCC/C=C\CCCCCCCCOC[C@@H]1C[C@@H](O)CN1 |  |  | 3.9 µM |  |  | 
3 | CCCCCCCC/C=C\CCCCCCCCOC[C@@H]1C[C@@H](O)CN1C(=O)OC(C)(C)C |  |  | 40 µM |  |  | 
4 | CC(C)(C)OC(=O)NCC(=O)N1CCC[C@H]1COCCCCCCCCC/C=C\c1ccc(Oc2ccccc2)cc1 | > 100 µM | > 100 µM |  |  |  | 
5 | CCCCCCCC/C=C/CCCCCCCCOC[C@@H]1CCCN1C(=O)OC(C)(C)C | > 100 µM | > 100 µM |  | > 100 µM | > 100 µM | 
6 | CC(C)(C)OC(=O)N1CCC[C@H]1COCCCCCCCC/C=C/c1ccc(Oc2ccccc2)cc1 | > 100 µM | 90 µM |  | > 100 µM | > 100 µM | 
7 | CC(C)(C)OC(=O)N1C[C@H](O)C[C@H]1COCCCCCCCCC/C=C/c1ccc(Oc2ccccc2)cc1 |  |  | 45.9 µM |  |  | 
8 | C=CCCCCCCOC[C@@H]1C[C@@H](O)CN1 |  |  | > 100 µM |  |  | 
9 | CCCCCCCC/C=C/CCCCCCCCOC[C@@H]1CCCN1.Cl | 5.3 µM | 5.3 µM |  | 4.2 µM | 9.2 µM | Activity (PANC-1 [2]): 1.2%; Activity (PANC-1 [3]): 5.3%; Activity (PANC-1 [4]): 2.5%; Activity (PANC-1 [5]): 1.6%; Activity (PANC-1 [6]): 2.6%; Activity (PANC-1 [7]): 8%
10 | CCCCCCCC/C=C\CCCCCCCCOC[C@@H]1CCCN1.Cl | 5.3 µM | 4.7 µM |  | 5.4 µM | 6.5 µM | Activity (PANC-1 [2]): 2.2%; Activity (PANC-1 [3]): 2.3%; Activity (PANC-1 [4]): 14.1%; Activity (PANC-1 [5]): 2.4%; Activity (PANC-1 [6]): 4.6%; Activity (PANC-1 [7]): 14.4%
11 | C=CCCCCCCCCCOC[C@@H]1CCCN1 | 6.3 µM | 50 µM |  | 17.1 µM | 18.9 µM | 
12 | C=CCCCCCCCCCOC[C@@H]1C[C@@H](O)CN1 |  |  | 39 µM |  |  | 

Second part, led by results:

Row | IC50 (BXPC-3) | IC50 (PANC-1 [1]) | IC50 (HeLa) | IC50 (MIA PaCa-2) | SMILES | IC50 (PK9) | other results
13 | 65 µM | 63.3 µM |  |  | O=CN1CCC[C@H]1COCCCCCCCCC/C=C/c1ccc(Oc2ccccc2)cc1 |  | 
14 |  |  | 36.5 µM |  | CC(C)(C)OC(=O)N1C[C@H](O)C[C@H]1COCCCCCCCCC/C=C/c1ccc(-c2ccccc2)cc1 |  | 
15 | 49.7 µM | 30 µM |  | 7.4 µM | C(=C\c1ccc(Oc2ccccc2)cc1)/CCCCCCOC[C@@H]1CCCN1 | 11.4 µM | 
16 | 5.3 µM | 5.3 µM |  | 3.7 µM | C(=C\c1ccc(-c2ccccc2)cc1)/CCCCCCCCOC[C@@H]1CCCN1.Cl | 3.9 µM | Activity (PANC-1 [2]): 0.9%; Activity (PANC-1 [3]): 3.2%; Activity (PANC-1 [4]): 10.6%; Activity (PANC-1 [5]): 1%; Activity (PANC-1 [6]): 2.3%; Activity (PANC-1 [7]): 12.2%
17 |  |  | 38.5 µM |  | CC(C)(C)OC(=O)N1C[C@H](O)C[C@H]1COCCCCCC/C=C/c1ccc(-c2ccccc2)cc1 |  | 
18 | 43.3 µM | 50 µM |  | 18.3 µM | C(=C\c1ccc(Oc2ccccc2)cc1)/CCCCCCCCOC[C@@H]1CCCN1 | 20.8 µM | 
19 | > 100 µM | > 100 µM |  | 23 µM | CC(C)(C)OC(=O)N1CCC[C@H]1COCCCCCC/C=C/c1ccc(-c2ccccc2)cc1 | > 100 µM | 
20 | 70 µM | 90 µM |  | 69.2 µM | CC(C)(C)OC(=O)N1CCC[C@H]1COCCCCCCCC/C=C/c1ccc(-c2ccccc2)cc1 | > 100 µM | 
21 | 56.7 µM | 60 µM |  | 19.3 µM | C(=C\c1ccc(Oc2ccccc2)cc1)/CCCCCCCCCOC[C@@H]1CCCN1 | 20.7 µM | 
22 |  |  | 3.9 µM |  | O[C@H]1CN[C@H](COCCCCCCCC/C=C/c2ccc(-c3ccccc3)cc2)C1 |  | 
23 | 56.7 µM | 70 µM |  |  | CC(=O)N1CCC[C@H]1COCCCCCCCCC/C=C/c1ccc(-c2ccccc2)cc1 |  | 
24 | 60 µM | 80 µM |  | 57.4 µM | CC(C)(C)OC(=O)N1CCC[C@H]1COCCCCCCCCC/C=C/c1ccc(-c2ccccc2)cc1 | > 100 µM | 
25 |  |  | 5.1 µM |  | O[C@H]1CN[C@H](COCCCCCC/C=C/c2ccc(Oc3ccccc3)cc2)C1 |  | 
26 | > 100 µM | > 100 µM |  |  | CC(C)(C)OC(=O)NCC(=O)N1CCC[C@H]1COCCCCCCCCC/C=C/c1ccc(-c2ccccc2)cc1 |  | 
27 | 46.7 µM | 53.3 µM |  |  | O=CN1CCC[C@H]1COCCCCCC/C=C/c1ccc(Oc2ccccc2)cc1 |  | 
28 | 53.3 µM | 50 µM |  |  | O=CN1CCC[C@H]1COCCCCCC/C=C/c1ccc(-c2ccccc2)cc1 |  | 
